Laboratory results published in paper PMC12488499, “Molecular mechanism of ultrafast transport by plasma membrane Ca^2+-ATPases” (Nature, 2025).

Legend:
PMCA2 [1] = molecular target: T1, PMCA2 (Mus musculus, UniProt Q9R0K7); assay: whole-cell patch clamp, BKCa-based Ca2+ transport assay in CHO cells; parameters: gene Atp2b2; PMCA2 C-terminally fused with GFP, co-expressed with NPTN-RFP in CHO cells; with NPTN
PMCA2 [2] = molecular target: T1, PMCA2; assay: cryo-EM structure, E1-ATP state; type: binding; parameters: gene Atp2b2; mouse PMCA2 (NM_001036684.3) with C-terminal FLAG or His-FLAG tag, expressed in tsA201 NPTN/BSG double knockout cells; with NPTN

T1 sequence (Q9R0K7 whole entry, the tested form may be a part): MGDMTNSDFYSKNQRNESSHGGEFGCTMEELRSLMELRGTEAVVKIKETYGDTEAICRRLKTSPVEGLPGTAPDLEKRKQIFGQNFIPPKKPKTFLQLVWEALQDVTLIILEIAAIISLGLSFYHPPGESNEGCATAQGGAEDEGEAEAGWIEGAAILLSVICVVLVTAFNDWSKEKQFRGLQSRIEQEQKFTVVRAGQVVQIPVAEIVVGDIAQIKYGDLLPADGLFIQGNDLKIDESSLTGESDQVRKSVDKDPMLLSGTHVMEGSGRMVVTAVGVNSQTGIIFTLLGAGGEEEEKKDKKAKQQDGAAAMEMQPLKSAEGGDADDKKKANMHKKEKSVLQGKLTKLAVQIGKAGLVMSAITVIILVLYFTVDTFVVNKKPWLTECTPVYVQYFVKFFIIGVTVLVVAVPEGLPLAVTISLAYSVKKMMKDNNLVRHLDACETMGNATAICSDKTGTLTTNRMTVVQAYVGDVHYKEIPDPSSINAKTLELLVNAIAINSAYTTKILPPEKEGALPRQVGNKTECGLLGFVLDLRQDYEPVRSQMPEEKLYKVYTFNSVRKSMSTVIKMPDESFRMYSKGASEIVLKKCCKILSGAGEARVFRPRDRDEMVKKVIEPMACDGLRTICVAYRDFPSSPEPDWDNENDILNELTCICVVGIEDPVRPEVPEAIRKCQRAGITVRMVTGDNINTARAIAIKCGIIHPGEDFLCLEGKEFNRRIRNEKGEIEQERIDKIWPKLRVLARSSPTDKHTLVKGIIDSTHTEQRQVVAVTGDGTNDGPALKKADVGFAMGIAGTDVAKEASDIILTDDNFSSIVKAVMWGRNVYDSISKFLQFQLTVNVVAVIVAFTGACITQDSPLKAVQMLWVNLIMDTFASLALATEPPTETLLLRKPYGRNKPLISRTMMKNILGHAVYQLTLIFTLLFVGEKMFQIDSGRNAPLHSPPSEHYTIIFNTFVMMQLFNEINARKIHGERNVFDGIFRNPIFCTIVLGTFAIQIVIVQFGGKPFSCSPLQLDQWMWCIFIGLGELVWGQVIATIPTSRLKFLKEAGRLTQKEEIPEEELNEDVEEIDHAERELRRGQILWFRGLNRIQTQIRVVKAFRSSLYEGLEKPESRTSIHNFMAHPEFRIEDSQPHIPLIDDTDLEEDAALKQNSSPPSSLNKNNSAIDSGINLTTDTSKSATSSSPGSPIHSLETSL
T1 sequence (P97300 29-397 partner): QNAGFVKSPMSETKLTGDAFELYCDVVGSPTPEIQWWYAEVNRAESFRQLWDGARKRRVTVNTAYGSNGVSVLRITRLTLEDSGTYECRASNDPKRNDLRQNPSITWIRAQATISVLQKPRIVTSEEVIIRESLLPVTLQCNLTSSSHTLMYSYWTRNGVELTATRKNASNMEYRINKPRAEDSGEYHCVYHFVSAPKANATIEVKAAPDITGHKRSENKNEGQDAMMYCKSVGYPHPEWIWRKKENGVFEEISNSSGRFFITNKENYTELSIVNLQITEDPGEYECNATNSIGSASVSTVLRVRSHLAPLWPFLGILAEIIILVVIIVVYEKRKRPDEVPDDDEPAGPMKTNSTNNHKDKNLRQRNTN

C/C=C(/C)C(=O)O[C@H]1C(C)=C2[C@H]([C@@H]1OC(=O)CCCCCCC)[C@@](C)(OC(C)=O)C[C@H](OC(=O)CCC)[C@@]1(O)[C@H]2OC(=O)[C@@]1(C)O [thapsigargin]
IC50 (PMCA2 [1]): 2.6 µM

Nc1ncnc2c1ncn2[C@@H]1O[C@H](CO[P@](=O)(O)O[P@](=O)(O)NP(=O)(O)O)[C@@H](O)[C@H]1O [AMPPNP]
cryo-EM structure, E1-ATP state (PMCA2 [2]): The bound AMPPNP molecule is shown, with the corresponding cryo-EM density in grey.
